Literature values in patent US5610177A, “Acylated amino acids as endothelin antagonists” (Warner-Lambert Company, priority 1994, dated 1997).
Where a SMILES comes first, the peptide text is derived from it. Where no end group is shown, it is not given here. [ ]: non-standard residue; d: D form.

Tests used:
Endothelin receptor [1] = settings: rat model; cited from earlier work
ETA receptor [2] = settings: rats, i.v.; cited from earlier work
ETA receptor [3] = settings: conscious rats; cited from earlier work
Endothelin receptor [4] = settings: i.v., cited from earlier work
[5] = system: Endothelin receptor subtype-A; settings: intravenous infusion, stroke prone spontaneous hypertensive rats; cited from earlier work
ETA receptor [6] = settings: rabbit retinal arteries, i.v.; cited from earlier work
[7] = system: Endothelin receptor subtype-A; settings: intravenous infusion; cited from earlier work
[8] = conditions of hypoglycemia; cited from earlier work
liver = settings: cited from earlier work
[9] = local intra-arterial administration, rats; cited from earlier work

CC(C)C[C@@H]1NC(=O)[C@@H](C(C)C)NC(=O)[C@@H]2CCCN2C(=O)[C@@H](CC(=O)O)NC(=O)[C@@H](Cc2c[nH]c3ccccc23)NC1=O [BQ-123] (cyclo(L[dW][dD]P[dV]))
acute CsA toxicity (Endothelin receptor [1]): suppressed
renal vascular resistance (ETA receptor [2]): blocked
antagonism of ET-1 induced pressor response (ETA receptor [3]): effective in antagonizing the ET-1 induced pressor response
mitochondrial Ca2+ accumulation (Endothelin receptor [4]; early phase of ischemic acute renal failure in rats): prevents the mitochondrial [Ca^2+ ] accumulation
protection of proximal tubular cells (Endothelin receptor [4]; ischemic acute renal failure in rats): protects proximal tubular cells from post-ischemic degeneration
blood pressure [5]: decreased blood pressure significantly
ET-1 induced vasoconstriction (ETA receptor [6]): blocked
prevention of acute hypoxia induced pulmonary hypertension [7]: effective in the prevention of acute hypoxia induced pulmonary hypertension

ET-3: one of a family of structurally similar bicyclic peptides (CTCFTYKDKECVYYCHLDIIW; not fully specified (bridges); cysteine pairing not given here; UniProt P14138 97-117, looked up)
striatal damage [8]: accelerate the development of striatal damage

Endothelin
hepatic vasoconstriction and glucose output (liver): sustained vasoconstriction of the hepatic vasculature and a significant increase in hepatic glucose output
small intestinal mucosal damage [9]: induce small intestinal mucosal damage in rats in a dose-dependent manner
